Assay results as given in ChEMBL document CHEMBL1125129, “Design of potent and selective linear antagonists of vasopressor (V1-receptor) responses to vasopressin” (J Med Chem, 1990).
Values belong to the molecule of their own block, whether it stands above or below them.

Assays:
[1] = target: Vasopressin V1 receptor (Rattus norvegicus) (UniProt P48974+P30560); assay: Effective dose was determined for Vasopressin V1 receptor antagonistic activity in vivo in anesthetized rats; type: functional, organism-based
[2] = target: Vasopressin V2 receptor (Rattus norvegicus) (UniProt Q00788); assay: Selectivity ratio of antidiuretic Vasopressin V2 receptor ED /[…] receptor ED; settings: Urine
[3] = target: Vasopressin V2 receptor (Rattus norvegicus) (UniProt Q00788); assay: Effective dose was determined for Vasopressin V2 receptor antagonistic activity in vivo in anesthetized rats; type: functional, organism-based
[4] = target: Vasopressin V2 receptor (Rattus norvegicus, UniProt Q00788); assay: Vasopressin V2 receptor antagonistic activity in vivo in anesthetized rats; type: functional, organism-based; settings: read-out: pA2 (converted)
[5] = target: Vasopressin V1 receptor (Rattus norvegicus, UniProt P48974+P30560); assay: pA2 value was determined for Vasopressin V1 receptor antagonistic activity in vivo in anesthetized rats; type: functional, organism-based

Chain of Vasopressin V1 receptor (Rattus norvegicus) (P30560 whole entry, looked up): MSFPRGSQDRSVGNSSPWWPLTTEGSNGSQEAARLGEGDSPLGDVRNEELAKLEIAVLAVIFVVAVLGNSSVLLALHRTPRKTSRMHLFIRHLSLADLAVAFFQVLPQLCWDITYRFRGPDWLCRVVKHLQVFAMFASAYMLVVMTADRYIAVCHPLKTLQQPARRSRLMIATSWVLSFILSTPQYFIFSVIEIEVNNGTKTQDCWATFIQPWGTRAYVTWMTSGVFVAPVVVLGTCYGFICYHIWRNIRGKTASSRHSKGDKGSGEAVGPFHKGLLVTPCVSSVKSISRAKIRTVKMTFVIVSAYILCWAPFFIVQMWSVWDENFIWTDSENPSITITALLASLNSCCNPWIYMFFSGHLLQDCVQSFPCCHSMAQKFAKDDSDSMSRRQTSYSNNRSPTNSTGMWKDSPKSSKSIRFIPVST
Chain of Vasopressin V1 receptor (Rattus norvegicus) (P48974 whole entry, looked up): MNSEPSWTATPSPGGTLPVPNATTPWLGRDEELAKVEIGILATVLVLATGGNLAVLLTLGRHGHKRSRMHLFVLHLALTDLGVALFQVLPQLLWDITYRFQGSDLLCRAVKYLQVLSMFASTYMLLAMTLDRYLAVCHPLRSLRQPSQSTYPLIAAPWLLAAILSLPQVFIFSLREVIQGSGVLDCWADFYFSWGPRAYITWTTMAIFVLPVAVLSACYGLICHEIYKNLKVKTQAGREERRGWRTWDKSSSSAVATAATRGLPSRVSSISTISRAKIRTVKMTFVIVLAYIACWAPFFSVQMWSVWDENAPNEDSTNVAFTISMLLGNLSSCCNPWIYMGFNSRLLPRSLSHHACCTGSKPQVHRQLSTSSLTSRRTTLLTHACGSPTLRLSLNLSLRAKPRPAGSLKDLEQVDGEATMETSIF
Chain of Vasopressin V2 receptor (Rattus norvegicus) (Q00788 whole entry): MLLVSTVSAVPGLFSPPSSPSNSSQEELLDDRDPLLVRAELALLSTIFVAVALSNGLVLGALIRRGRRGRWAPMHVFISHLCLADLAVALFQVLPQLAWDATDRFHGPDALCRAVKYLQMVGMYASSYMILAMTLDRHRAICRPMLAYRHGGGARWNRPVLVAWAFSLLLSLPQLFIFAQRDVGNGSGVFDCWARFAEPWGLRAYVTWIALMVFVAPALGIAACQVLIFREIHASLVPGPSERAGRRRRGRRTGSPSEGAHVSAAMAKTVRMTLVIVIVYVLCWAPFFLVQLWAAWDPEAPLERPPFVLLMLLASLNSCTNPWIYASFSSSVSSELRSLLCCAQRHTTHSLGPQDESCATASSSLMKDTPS
Chain of Vasopressin V2 receptor (Q00788 whole entry): as above

Compound: CC(C)[C@H](NC(=O)[C@H](Cc1ccccc1)NC(=O)[C@@H](Cc1ccc(O)cc1)NC(=O)CC12CC3CC(CC(C3)C1)C2)C(=O)N[C@@H](CC(N)=O)C(=O)N[C@@H](CCCN=C(N)N)C(=O)N1CCC[C@@H]1C(=O)N[C@@H](CCCN=C(N)N)C(=O)N[C@@H](CCCN=C(N)N)C(N)=O
Ratio [2]: 4.3 | Effective dose [3]: 1.7 nM/kg

Compound: CCOc1ccc(C[C@@H](NC(=O)CC23CC4CC(CC(C4)C2)C3)C(=O)N[C@@H](Cc2ccccc2)C(=O)N[C@H](C(=O)N[C@@H](CC(N)=O)C(=O)N[C@@H](CCCN=C(N)N)C(=O)N2CCC[C@@H]2C(=O)N[C@@H](CCCN=C(N)N)C(N)=O)C(C)C)cc1
Effective dose [1]: 0.66 nM/kg | Ratio [2]: 2.1 | Effective dose [3]: 1.4 nM/kg

Compound: CCOc1ccc(C[C@@H](NC(=O)CC23CC4CC(CC(C4)C2)C3)C(=O)N[C@@H](Cc2ccccc2)C(=O)N[C@H](C(=O)N[C@@H](CC(N)=O)C(=O)N[C@@H](CCCCN)C(=O)N2CCC[C@H]2C(=O)N[C@@H](CCCN=C(N)N)C(=O)N[C@@H](CCCN=C(N)N)C(N)=O)C(C)C)cc1
Kb [4]: 0.02 µM | pA2 [5]: 8.14

Compound: CCOc1ccc(C[C@@H](NC(=O)CC(C)(C)C)C(=O)N[C@@H](Cc2ccccc2)C(=O)N[C@H](C(=O)N[C@@H](CC(N)=O)C(=O)NCCCC(=O)N2CCC[C@@H]2C(=O)N[C@@H](CCCN=C(N)N)C(=O)N[C@@H](CCCN=C(N)N)C(N)=O)C(C)C)cc1
Effective dose [1]: 0.71 nM/kg | Ratio [2]: 1.2 | Effective dose [3]: 0.83 nM/kg

Compound: CCOc1ccc(C[C@@H](NC(=O)CC23CC4CC(CC(C4)C2)C3)C(=O)N[C@@H](Cc2ccccc2)C(=O)N[C@H](C(=O)N[C@@H](CC(N)=O)C(=O)N[C@@H](CCCN)C(=O)N2CCC[C@@H]2C(=O)N[C@@H](CCCN=C(N)N)C(N)=O)C(C)C)cc1
Effective dose [1]: 3.2 nM/kg | Ratio [2]: 0.3 | Effective dose [3]: 1.1 nM/kg

Compound: CCOc1ccc(C[C@@H](NC(=O)CC(C)(C)C)C(=O)N[C@@H](Cc2ccccc2)C(=O)N[C@H](C(=O)N[C@@H](CC(N)=O)C(=O)NCCCC(=O)N2CCC[C@H]2C(=O)N[C@@H](CCCN=C(N)N)C(=O)N[C@@H](CCCN=C(N)N)C(N)=O)C(C)C)cc1
Kb [4]: 0.0123 µM | pA2 [5]: 7.99

Compound: CCOc1ccc(C[C@H]2NC(=O)CC3(CCCCC3)SSC[C@H](C(=O)N3CCC[C@H]3C(=O)N[C@@H](CCCN=C(N)N)C(N)=O)NC(=O)[C@@H](CC(N)=O)NC(=O)[C@H](C(C)C)NC(=O)[C@@H](Cc3ccccc3)NC2=O)cc1
Effective dose [1]: 0.45 nM/kg | Ratio [2]: 3.3 | Effective dose [3]: 1.5 nM/kg

Compound: CCOc1ccc(C[C@H]2NC(=O)CC3(CCCCC3)SSC[C@H](C(=O)N3CCC[C@H]3C(=O)N[C@@H](CCCN=C(N)N)C(=O)NCC(N)=O)NC(=O)[C@@H](CC(N)=O)NC(=O)[C@H](C(C)C)NC(=O)[C@@H](Cc3ccccc3)NC2=O)cc1
Effective dose [1]: 0.45 nM/kg | Effective dose [3]: 1.1 nM/kg | pA2 [5]: 8.22

Compound: CC(C)[C@H](NC(=O)[C@H](Cc1ccccc1)NC(=O)[C@@H](Cc1ccc(O)cc1)NC(=O)CC12CC3CC(CC(C3)C1)C2)C(=O)N[C@@H](CC(N)=O)C(=O)N[C@@H](CCCN=C(N)N)C(=O)N1CCC[C@H]1C(=O)N[C@@H](CCCN=C(N)N)C(=O)N[C@@H](CCCN=C(N)N)C(N)=O
Kb [4]: 0.0219 µM | pA2 [5]: 8.22

Compound: CCOc1ccc(C[C@@H](NC(=O)CC23C[C@H]4C[C@@H](C2)C[C@@H](C3)C4)C(=O)N[C@@H](Cc2ccccc2)C(=O)N[C@H](C(=O)N[C@@H](CC(N)=O)C(=O)NCCCC(=O)N2CCC[C@@H]2C(=O)N[C@@H](CCCN=C(N)N)C(=O)N[C@@H](CCCN=C(N)N)C(N)=O)C(C)C)cc1
Effective dose [1]: 1.2 nM/kg | Ratio [2]: 0.44 | Effective dose [3]: 0.53 nM/kg

Compound: CCOc1ccc(C[C@@H](NC(=O)CC23CC4CC(CC(C4)C2)C3)C(=O)N[C@@H](Cc2ccccc2)C(=O)N[C@H](C(=O)N[C@@H](CC(N)=O)C(=O)N[C@@H](CCCN=C(N)N)C(=O)N2CCC[C@@H]2C(=O)N[C@@H](CCCN=C(N)N)C(=O)N[C@@H](CCCN=C(N)N)C(N)=O)C(C)C)cc1
Effective dose [1]: 0.5 nM/kg | Ratio [2]: 1.4 | Effective dose [3]: 0.71 nM/kg

Compound: CCOc1ccc(C[C@@H](NC(=O)CC23CC4CC(CC(C4)C2)C3)C(=O)N[C@@H](Cc2ccccc2)C(=O)N[C@H](C(=O)N[C@@H](CC(N)=O)C(=O)N[C@@H](CCCN)C(=O)N2CCC[C@@H]2C(=O)N[C@@H](CCCN=C(N)N)C(=O)N[C@@H](CCCN=C(N)N)C(N)=O)C(C)C)cc1
Effective dose [1]: 1.6 nM/kg | Ratio [2]: 0.6 | Effective dose [3]: 0.9 nM/kg

Compound: CCOc1ccc(C[C@@H](NC(=O)CC23CC4CC(CC(C4)C2)C3)C(=O)N[C@@H](Cc2ccccc2)C(=O)N[C@H](C(=O)N[C@@H](CC(N)=O)C(=O)N[C@@H](CCCCN)C(=O)N2CCC[C@@H]2C(=O)N[C@@H](CCCN=C(N)N)C(=O)N[C@@H](CCCN=C(N)N)C(N)=O)C(C)C)cc1
Effective dose [1]: 0.5 nM/kg | Ratio [2]: 2.8 | Effective dose [3]: 1.4 nM/kg

More lines, now with the values ahead:

Effective dose [1]: 0.07 nM/kg | Ratio [2]: 570 | Effective dose [3]: 40 nM/kg
Compound: CCOc1ccc(C[C@@H](NC(=O)Cc2ccccc2)C(=O)N[C@@H](Cc2ccccc2)C(=O)N[C@@H](CCC(N)=O)C(=O)N[C@@H](CC(N)=O)C(=O)N[C@@H](CCCCN)C(=O)N2CCC[C@@H]2C(=O)N[C@@H](CCCN=C(N)N)C(N)=O)cc1

Effective dose [1]: 0.17 nM/kg | Ratio [2]: 41 | Effective dose [3]: > 7 nM/kg
Compound: CCOc1ccc(C[C@@H](NC(=O)CC(C)(C)C)C(=O)N[C@@H](Cc2ccccc2)C(=O)N[C@H](C(=O)N[C@@H](CC(N)=O)C(=O)N[C@@H](CCCCN)C(=O)N2CCC[C@@H]2C(=O)N[C@@H](CCCN=C(N)N)C(N)=O)C(C)C)cc1

Effective dose [1]: 0.66 nM/kg | Ratio [2]: 1.7 | Effective dose [3]: 1.1 nM/kg
Compound: CCOc1ccc(C[C@@H](NC(=O)CC23CC4CC(CC(C4)C2)C3)C(=O)N[C@@H](Cc2ccccc2)C(=O)N[C@H](C(=O)N[C@@H](CC(N)=O)C(=O)N[C@@H](CCCCN)C(=O)N2CCC[C@@H]2C(=O)N[C@@H](CCCN=C(N)N)C(N)=O)C(C)C)cc1

Effective dose [1]: 0.24 nM/kg | Ratio [2]: 41 | Effective dose [3]: 9.8 nM/kg
Compound: CCOc1ccc(C[C@@H](NC(=O)Cc2ccccc2)C(=O)N[C@@H](Cc2ccccc2)C(=O)N[C@H](C(=O)N[C@@H](CC(N)=O)C(=O)N[C@@H](CCCCN)C(=O)N2CCC[C@@H]2C(=O)N[C@@H](CCCN=C(N)N)C(=O)N[C@@H](CCCN=C(N)N)C(N)=O)C(C)C)cc1

Kb [4]: 0.0102 µM | pA2 [5]: 8.42
Compound: CCOc1ccc(C[C@@H](NC(=O)Cc2ccccc2)C(=O)N[C@@H](Cc2ccccc2)C(=O)N[C@H](C(=O)N[C@@H](CC(N)=O)C(=O)NCCCC(=O)N2CCC[C@H]2C(=O)N[C@@H](CCCN=C(N)N)C(=O)N[C@@H](CCCN=C(N)N)C(N)=O)C(C)C)cc1

Kb [4]: 0.0437 µM | pA2 [5]: 8.81
Compound: CCOc1ccc(C[C@@H](NC(=O)Cc2ccccc2)C(=O)N[C@@H](Cc2ccccc2)C(=O)N[C@H](C(=O)N[C@@H](CC(N)=O)C(=O)N[C@@H](CCCCN)C(=O)N2CCC[C@H]2C(=O)N[C@@H](CCCN=C(N)N)C(N)=O)C(C)C)cc1

Effective dose [1]: 0.26 nM/kg | Ratio [2]: 2.7 | Effective dose [3]: 0.69 nM/kg
Compound: CCOc1ccc(C[C@@H](NC(=O)Cc2ccccc2)C(=O)N[C@@H](Cc2ccccc2)C(=O)N[C@H](C(=O)N[C@@H](CC(N)=O)C(=O)NCCCC(=O)N2CCC[C@@H]2C(=O)N[C@@H](CCCN=C(N)N)C(=O)N[C@@H](CCCN=C(N)N)C(N)=O)C(C)C)cc1

Effective dose [1]: 0.17 nM/kg | Ratio [2]: 35 | Effective dose [3]: 6 nM/kg
Compound: COc1ccc(C[C@@H](NC(=O)Cc2ccccc2)C(=O)N[C@@H](Cc2ccccc2)C(=O)N[C@H](C(=O)N[C@@H](CC(N)=O)C(=O)N[C@@H](CCCCN)C(=O)N2CCC[C@@H]2C(=O)N[C@@H](CCCN=C(N)N)C(N)=O)C(C)C)cc1

Effective dose [1]: 0.083 nM/kg | Ratio [2]: > 290 | Effective dose [3]: > 24 nM/kg
Compound: COc1ccc(C[C@@H](NC(=O)Cc2ccccc2)C(=O)N[C@@H](Cc2ccccc2)C(=O)N[C@@H](CCC(N)=O)C(=O)N[C@@H](CC(N)=O)C(=O)N[C@@H](CCCCN)C(=O)N2CCC[C@@H]2C(=O)N[C@@H](CCCN=C(N)N)C(N)=O)cc1

pA2 [5]: 8.62
Compound: CC(C)[C@H](NC(=O)[C@H](Cc1ccccc1)NC(=O)[C@@H](Cc1ccc(O)cc1)NC(=O)Cc1ccccc1)C(=O)N[C@@H](CC(N)=O)C(=O)N[C@@H](CCCN=C(N)N)C(=O)N1CCC[C@H]1C(=O)N[C@@H](CCCN=C(N)N)C(=O)N[C@@H](CCCN=C(N)N)C(N)=O

Effective dose [1]: 0.29 nM/kg | Ratio [2]: 14 | Effective dose [3]: 4 nM/kg
Compound: CCOc1ccc(C[C@@H](NC(=O)Cc2ccccc2)C(=O)N[C@@H](Cc2ccccc2)C(=O)N[C@H](C(=O)N[C@@H](CC(N)=O)C(=O)N[C@@H](CCCN)C(=O)N2CCC[C@@H]2C(=O)N[C@@H](CCCN=C(N)N)C(=O)N[C@@H](CCCN=C(N)N)C(N)=O)C(C)C)cc1

Effective dose [1]: 0.16 nM/kg
Compound: CC(C)[C@H](NC(=O)[C@H](Cc1ccccc1)NC(=O)[C@@H](Cc1ccc(O)cc1)NC(=O)Cc1ccccc1)C(=O)N[C@@H](CC(N)=O)C(=O)N[C@@H](CCCN=C(N)N)C(=O)N1CCC[C@@H]1C(=O)N[C@@H](CCCN=C(N)N)C(=O)N[C@@H](CCCN=C(N)N)C(N)=O

Effective dose [1]: 0.11 nM/kg | Ratio [2]: 26 | Effective dose [3]: 2.9 nM/kg
Compound: CCOc1ccc(C[C@@H](NC(=O)Cc2ccccc2)C(=O)N[C@@H](Cc2ccccc2)C(=O)N[C@H](C(=O)N[C@@H](CC(N)=O)C(=O)N[C@@H](CCCCN)C(=O)N2CCC[C@@H]2C(=O)N[C@@H](CCCN=C(N)N)C(N)=O)C(C)C)cc1

Effective dose [1]: 0.27 nM/kg | Ratio [2]: > 1500 | Effective dose [3]: > 410 nM/kg
Compound: CCOc1ccc(C[C@@H](NC(=O)CC(C)(C)C)C(=O)N[C@@H](Cc2ccccc2)C(=O)N[C@@H](CCC(N)=O)C(=O)N[C@@H](CC(N)=O)C(=O)N[C@@H](CCCCN)C(=O)N2CCC[C@@H]2C(=O)N[C@@H](CCCN=C(N)N)C(N)=O)cc1

Effective dose [1]: 0.085 nM/kg | Ratio [2]: 59 | Effective dose [3]: 5 nM/kg
Compound: NCCCC[C@H](NC(=O)[C@H](CC(N)=O)NC(=O)[C@H](CCC(N)=O)NC(=O)[C@H](Cc1ccccc1)NC(=O)[C@@H](Cc1ccc(O)cc1)NC(=O)Cc1ccccc1)C(=O)N1CCC[C@@H]1C(=O)N[C@@H](CCCN=C(N)N)C(N)=O
